In patent publication US20030135023A1, “Peptide structures useful for competitive modulation of dipeptidyl peptidase IV catalysis” (priority 2001, published 2003):
Square brackets hold non-standard residues; d marks the D form. Peptide text beside a SMILES is read from it. Tle = CC(C)(C)[C@H](N)C(=O)O

Target: purified porcine DP IV (Sus scrofa, UniProt P22411)
Assay: Determination of Ki-values, Gly-Pro-pNA cleavage by DP IV
Assay type: biochemical
Settings: Gly-Pro-pNA 0.05-0.4 mM
Method: 100 μl inhibitor stock solution were mixed with 100 μl buffer (HEPES pH 7.6) and 50 μl substrate (Gly-Pro-pNA, final concentration 0.4 mM) and preincubated at 30° C. Reaction was started by addition of 20 μl purified porcine DP IV. Formation of the product pNA was measured at 405 nm over 10 min using the HTS 7000 Plus plate reader (Perkin Elmer) and slopes were calculated. The final inhibitor concentrations ranged between 1 mM and 30 nM.
Calculations were performed using the GraFit Software.

Chain of purified porcine DP IV (P22411 whole entry): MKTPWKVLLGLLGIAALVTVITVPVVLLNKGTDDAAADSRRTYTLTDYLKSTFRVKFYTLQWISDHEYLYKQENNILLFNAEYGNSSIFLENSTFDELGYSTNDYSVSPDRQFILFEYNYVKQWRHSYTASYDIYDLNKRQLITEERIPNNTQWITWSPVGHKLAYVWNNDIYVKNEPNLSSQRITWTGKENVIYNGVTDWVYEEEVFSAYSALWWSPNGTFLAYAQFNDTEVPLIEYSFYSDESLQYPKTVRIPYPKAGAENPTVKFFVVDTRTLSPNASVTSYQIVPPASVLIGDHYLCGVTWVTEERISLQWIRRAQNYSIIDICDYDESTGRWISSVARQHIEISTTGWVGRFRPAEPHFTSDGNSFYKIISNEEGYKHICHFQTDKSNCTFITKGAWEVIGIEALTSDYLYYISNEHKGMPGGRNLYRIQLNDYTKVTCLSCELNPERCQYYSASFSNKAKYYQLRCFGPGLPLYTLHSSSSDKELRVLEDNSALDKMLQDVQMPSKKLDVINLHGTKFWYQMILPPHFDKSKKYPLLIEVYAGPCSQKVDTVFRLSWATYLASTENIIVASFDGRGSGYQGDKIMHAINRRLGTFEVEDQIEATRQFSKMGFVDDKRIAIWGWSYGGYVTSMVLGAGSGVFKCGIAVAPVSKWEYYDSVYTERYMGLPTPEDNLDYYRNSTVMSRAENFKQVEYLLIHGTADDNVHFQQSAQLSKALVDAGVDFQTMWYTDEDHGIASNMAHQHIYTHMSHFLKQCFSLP

Ki: 3.1 µM
Compound: CC[C@H](C)[C@H](NC(=O)[C@@H]1CCCN1C(=O)[C@@H](N)C(C)(C)C)C(=O)O [t-butyl-Gly-Pro-Ile] (H-[Tle]-Pro-Ile-OH; N-terminus and C-terminus assumed)
